In PubChem BioAssay (NCI):
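All cell lines were grown in 96-well plates and treated with compound for 48 hours. The concentration for 50% growth inhibition is given as GI50. At the TGI there is no net growth.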

Experiments:
Assay in all cases: growth of human tumour cells (NCI), 48 h; in the data active = GI50 below about 0.43 µM; inactive = the rest
[1] = tested on: MALME-3M melanoma
[2] = tested on: RPMI-8226 leukemia
[3] = tested on: UACC-62 melanoma
[4] = tested on: TK-10 renal
[5] = tested on: MCF7 breast
[6] = tested on: SNB-75 CNS
[7] = tested on: M14 melanoma
[8] = tested on: A498 renal
[9] = tested on: BT-549 breast
[10] = tested on: CCRF-CEM leukemia
[11] = tested on: SW-620 colon
[12] = tested on: NCI-H226 lung
[13] = tested on: NCI/ADR-RES ovarian
[14] = tested on: SF-268 CNS
[15] = tested on: IGROV1 ovarian
[16] = tested on: MOLT-4 leukemia
[17] = tested on: COLO 205 colon
[18] = tested on: HL-60(TB) leukemia
[19] = tested on: U251 CNS
[20] = tested on: NCI-H522 lung
[21] = tested on: 786-0 renal
[22] = tested on: SF-295 CNS
[23] = tested on: SK-MEL-5 melanoma
[24] = tested on: SK-MEL-2 melanoma
[25] = tested on: PC-3 prostate
[26] = tested on: SR leukemia
[27] = tested on: OVCAR-3 ovarian
[28] = tested on: HOP-92 NSCLC
[29] = tested on: OVCAR-4 ovarian
[30] = tested on: OVCAR-8 ovarian
[31] = tested on: NCI-H460 lung
[32] = tested on: K-562 leukemia
[33] = tested on: UACC-257 melanoma
[34] = tested on: UO-31 renal
[35] = tested on: HS 578T breast
[36] = tested on: SK-OV-3 ovarian
[37] = tested on: DU-145 prostate
[38] = tested on: NCI-H23 lung
[39] = tested on: RXF 393 renal
[40] = tested on: CAKI-1 renal
[41] = tested on: HCC-2998 colon
[42] = tested on: SN12C renal
[43] = tested on: ACHN renal
[44] = tested on: T-47D breast
[45] = tested on: HCT-15 colon
[46] = tested on: MDA-MB-231 breast
[47] = tested on: LOX IMVI melanoma
[48] = tested on: A549 NSCLC
[49] = tested on: HCT-116 colon
[50] = tested on: HT29 colon
[51] = tested on: SF-539 CNS
[52] = tested on: KM12 colon
[53] = tested on: SNB-19 CNS
[54] = tested on: OVCAR-5 ovarian
[55] = tested on: MDA-MB-435
[56] = tested on: EKVX NSCLC
[57] = tested on: HOP-62 NSCLC
[58] = tested on: SK-MEL-28 melanoma

O=C(N/N=C\c1cc(Cl)ccc1O)N/N=C/c1cc(Cl)ccc1O
9.48 µM: TGI [28]
19 µM: TGI [20]
inactive: GI50 [1] 34.3 µM | GI50 [2] 2.79 µM | GI50 [3] 0.918 µM | GI50 [4] > 100 µM | GI50 [5] 3.12 µM | GI50 [6] 0.969 µM | GI50 [7] 5.24 µM | GI50 [8] > 100 µM | GI50 [9] > 100 µM | GI50 [10] 2.51 µM | GI50 [11] 0.807 µM | GI50 [12] > 100 µM | GI50 [13] 2.48 µM | GI50 [14] 9.74 µM | GI50 [15] 1.56 µM | GI50 [16] 57.5 µM | GI50 [17] 4.92 µM | GI50 [18] 6.22 µM | GI50 [19] 0.997 µM | GI50 [20] 0.616 µM | GI50 [21] > 100 µM | GI50 [22] 2.37 µM | GI50 [23] 6.41 µM | GI50 [24] > 100 µM | GI50 [25] 2.96 µM | GI50 [26] 78.5 µM | GI50 [27] 2.12 µM | GI50 [28] 0.99 µM | GI50 [29] 0.871 µM | GI50 [30] 1.77 µM | GI50 [31] 0.518 µM | GI50 [32] 0.572 µM | GI50 [33] 6.6 µM | GI50 [34] 0.489 µM | GI50 [35] 0.643 µM | GI50 [36] > 100 µM | GI50 [37] > 100 µM | GI50 [38] 2.34 µM | GI50 [39] > 100 µM | GI50 [40] 3.36 µM | GI50 [41] 3.34 µM | GI50 [42] > 100 µM | GI50 [43] 1.17 µM | GI50 [44] 2.32 µM | GI50 [45] 0.676 µM | GI50 [46] 4.3 µM | GI50 [47] 2.14 µM | GI50 [48] 0.521 µM | GI50 [49] 0.565 µM | GI50 [50] 9.57 µM | GI50 [51] 2.32 µM | GI50 [52] 13.1 µM | GI50 [53] > 100 µM | GI50 [54] > 100 µM | GI50 [55] 1.36 µM | GI50 [56] 7.83 µM | GI50 [57] 2.49 µM | GI50 [58] > 100 µM
> 100 µM: TGI [1] | TGI [2] | TGI [3] | TGI [4] | TGI [5] | TGI [6] | TGI [7] | TGI [8] | TGI [9] | TGI [10] | TGI [11] | TGI [12] | TGI [13] | TGI [14] | TGI [15] | TGI [16] | TGI [17] | TGI [18] | TGI [19] | TGI [21] | TGI [22] | TGI [23] | TGI [24] | TGI [25] | TGI [26] | TGI [27] | TGI [29] | TGI [30] | TGI [31] | TGI [32] | TGI [33] | TGI [34] | TGI [35] | TGI [36] | TGI [37] | TGI [38] | TGI [39] | TGI [40] | TGI [41] | TGI [42] | TGI [43] | TGI [44] | TGI [45] | TGI [46] | TGI [47] | TGI [48] | TGI [49] | TGI [50] | TGI [51] | TGI [52] | TGI [53] | TGI [54] | TGI [55] | TGI [56] | TGI [57] | TGI [58]
